Reference: publication PMC10671697, “Drug-Induced Conformational Dynamics of P-Glycoprotein Underlies the Transport of Camptothecin Analogs” (International Journal of Molecular Sciences, 2023)
Where “and” joins values, the source holds several entries; their conditions need not be identical. Identical values can stand only once. Like-named read-outs stand apart in the source and are kept apart here. Values belong to the compound of their own block, whether it stands above or below them.

What was measured:
[1] = target: T1, wild-type mouse Pgp (MDR3) (Mus musculus, UniProt P21447)
Experimental: Acrylamide quenching of protein fluorescence was used to probe drug-induced Pgp conformational changes indirectly. For this assay, a solution containing 1 µM of Pgp reconstituted into liposomes was titrated with acrylamide. The preparation was carried out in Chifflet buffer (pH 7.4) supplemented with 2 mM DTT. The assay was performed both in the presence and absence of ligand(s). […] The fluorescence intensities were corrected for dilution, background, and inner filter effects using Equation (3). A Stern–Volmer plot of Fo(corrected)/F(corrected) versus the concentration of acrylamide added was generated. The slope of the curve, an indicator of the degree of quenching, is related to the Stern–Volmer’s constant (Ksv) by Equation (4). (4) Focorrected/Fcorrected=1+KsvQ where [Q] is the concentration of the quencher, acrylamide.

[2] = target: T1, wild-type mouse Pgp (MDR3); remark: listed apart in the source
Experimental: Atomic force microscopy (AFM) has been adapted for analyzing protein dynamics and structure, which has enabled the determination of conformational changes induced by ligands. In this study, Pgp reconstituted into liposomes was diluted in imaging buffer (20 mM HEPES, 100 mM NaCl, and 5 mM MgCl2; pH 7.4) to 100 nM. About 90 µL droplets of the diluted Pgp solution were deposited on cleaned […] (Corning, Corning, NY, USA), followed by 30 min of incubation at 25 °C. This step caused the proteoliposomes to rupture, forming a planar lipid bilayer on top of the mica surface. The samples were rinsed at least five times using the buffer exchange technique, wherein 90 µL of buffer was utilized. Next, AFM imaging of the EC-side and C-side domains of Pgp protrusions above the lipid bilayer was performed as previously described. For each of the selected CPTs used in this study, AFM imaging of the ligand-free Pgp (apoPgp) was performed first, then ligand was added, and imaging was repeated in nominally the same area. […] Only membrane-external protrusions that could be positively assigned as either EC or C-side domain features of Pgp were analyzed. All the AFM images were obtained in an imaging buffer at about 30 °C in tapping mode with biolever mini tips (BL-AC40TS, Olympus, Tokyo, Japan) installed on a commercial instrument (Asylum Research Cypher, Santa Barbara, CA, USA). The tip-sample force was kept below 100 pN to minimize the probability of protein distortion. The AFM images were analyzed with custom software written in Igor Pro 7 (Wavemetrics, Portland, OR, USA), as described previously. Kernel density estimation with Epanechnikov kernels in Igor Pro 7 software was used to generate smoothed histograms for further analysis. The histograms were fitted with a summation of Gaussian distributions. The Bayesian information criterion was used to select the best model after fitting with 1–5 Gaussian distributions as described previously (see Supporting Information).

[3] = second-line chemotherapy, versus TPT; cited from earlier work
[4] = tested on: human tumor xenograft models; conditions: different human tumor xenograft models, versus TPT; cited from earlier work
[5] = target: T1, wild-type mouse Pgp (MDR3); remark: listed apart in the source
From the text: For a molecule that binds to the receptor, only the protons within a distance of 5 Å from the saturated protein receive noticeable saturation transfer. The saturation transferred from the receptor to the bound ligands can be detected upon dissociation as a saturation transfer difference (STD). The observed degree of saturation transferred inversely correlates with the distance between the ligand and the receptor and reflects the degree of interaction. Due to the high lipophilicity of most Pgp substrates, there is a high possibility of non-specific interactions between the ligands and liposomes used, which can interfere with the STD NMR spectrum observed. The STD NMR spectrum of the drug in the presence of liposomes was performed and subtracted from the STD ^1H NMR spectrum of the ligand in the presence of proteins reconstituted into liposomes to yield a STDD. […] All NMR experiments were carried out at 25 °C (unless otherwise stated) on a Varian INOVA 600 MHz NMR spectrometer installed with a 1H-detect broadband probe {HX}.
The control samples were identically prepared with liposomes instead of Pgp reconstituted in liposomes. […] The difference between the on-resonance and the off-resonance created the STD ^1H NMR spectrum. A control experiment consisting of liposomes and drugs was obtained under identical conditions and subtracted from the ^1H STD NMR spectrum of the reconstituted Pgp sample with the drug to generate the STDD ^1H NMR spectrum. […] The STDD amplification factor was calculated using Equation (5) below. (5) STDD Amplication Factor=l/PΔl/Io where Io is the amplitude of the ^1H NMR peaks, l is the ligand concentration, and P is the protein concentration.

[6] = target: T1, wild-type mouse Pgp (MDR3); conditions: for Decrease of protein fluorescence from the initial fluorescence: ex 295 nm; for Decrease of protein fluorescence: saturating AMPPNP
[7] = versus TPT; cited from earlier work
[8] = target: T1, wild-type mouse Pgp (MDR3); assay: biochemical
[9] = tested on: LS513 cells; conditions: LS513 cells treated with BCRP and MRP2 inhibitors, versus SN-38; cited from earlier work
[10] = 800 µM drug, 1 µM Pgp in liposomes, 25 °C

T1 sequence (P21447 whole entry): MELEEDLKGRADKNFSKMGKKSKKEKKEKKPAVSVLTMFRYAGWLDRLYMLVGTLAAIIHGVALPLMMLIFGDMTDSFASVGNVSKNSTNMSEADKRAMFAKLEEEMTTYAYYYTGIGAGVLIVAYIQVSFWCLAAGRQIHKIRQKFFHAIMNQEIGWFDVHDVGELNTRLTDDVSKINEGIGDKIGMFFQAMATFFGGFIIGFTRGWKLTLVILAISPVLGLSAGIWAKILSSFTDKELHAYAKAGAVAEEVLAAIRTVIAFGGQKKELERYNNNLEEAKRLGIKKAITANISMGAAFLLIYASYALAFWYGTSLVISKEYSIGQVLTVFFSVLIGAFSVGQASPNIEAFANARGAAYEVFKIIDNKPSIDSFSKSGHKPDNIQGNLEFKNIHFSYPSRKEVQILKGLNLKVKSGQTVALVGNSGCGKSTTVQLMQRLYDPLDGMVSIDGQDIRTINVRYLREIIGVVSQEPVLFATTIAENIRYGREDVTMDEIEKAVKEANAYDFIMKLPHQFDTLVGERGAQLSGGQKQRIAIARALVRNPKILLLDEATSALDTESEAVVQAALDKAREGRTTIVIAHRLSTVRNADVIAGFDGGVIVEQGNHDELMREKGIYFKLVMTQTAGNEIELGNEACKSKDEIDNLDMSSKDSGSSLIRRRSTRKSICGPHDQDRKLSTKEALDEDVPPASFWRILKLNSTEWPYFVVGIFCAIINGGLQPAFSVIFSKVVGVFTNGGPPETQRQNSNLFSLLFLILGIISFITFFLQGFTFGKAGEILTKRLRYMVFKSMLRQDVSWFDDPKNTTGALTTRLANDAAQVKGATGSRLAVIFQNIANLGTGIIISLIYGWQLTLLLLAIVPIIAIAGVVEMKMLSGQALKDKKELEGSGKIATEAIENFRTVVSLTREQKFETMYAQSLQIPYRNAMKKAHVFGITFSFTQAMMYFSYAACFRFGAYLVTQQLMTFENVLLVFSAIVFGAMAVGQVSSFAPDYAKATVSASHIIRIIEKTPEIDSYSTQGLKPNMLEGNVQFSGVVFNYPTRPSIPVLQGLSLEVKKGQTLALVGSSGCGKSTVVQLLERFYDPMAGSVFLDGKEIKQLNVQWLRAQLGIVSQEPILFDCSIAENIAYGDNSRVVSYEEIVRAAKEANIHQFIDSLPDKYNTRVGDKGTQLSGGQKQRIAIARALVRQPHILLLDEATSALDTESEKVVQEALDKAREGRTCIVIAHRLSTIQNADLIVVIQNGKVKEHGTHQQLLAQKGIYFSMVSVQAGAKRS

Compound: Nc1ncnc2c1ncn2[C@@H]1O[C@H](COP(=O)([O-])OP(=O)([O-])NP(=O)([O-])[O-])[C@@H](O)[C@H]1O.[Li+].[Li+].[Li+].[Li+] [AMPPNP, Adenosine 5′-(β,γ-imido)triphosphate lithium salt]
- Ksv of acrylamide quenching of Pgp fluorescence ([1]; Pgp with saturating (3.2 mM) AMPPNP alone, no CPT): 0.84 ± 0.07 M⁻¹

- C-side height of tallest Pgp population in presence of drug ([2]; 100 µM drug, apo 76 ± 9 Å): 70 ± 10 Å
- Decrease in the Ksv value of apoPgp (acrylamide quenching) [1]: ~ 20%
- Ksv of acrylamide quenching of Pgp fluorescence [1]: 0.83 ± 0.05 and 0.83 ± 0.05 M^−1
- Highest STDD amplification factor [5]: ~81
- Change of affinity for Pgp in the presence of AMPPNP [6]: diminished by over threefold
- Stern–Volmer constant (Ksv) of drug-induced Pgp fluorescence quenching [6]: 0.07 ± 0.01 µM⁻¹
Compound: CCc1c2c(nc3ccc(OC(=O)N4CCC(N5CCCCC5)CC4)cc13)-c1cc3c(c(=O)n1C2)COC(=O)[C@]3(O)CC [IRT, Irinotecan]
- Survival rate of patients compared with TPT [3]: higher survival rate
- Efficacy compared with TPT [4]: greater efficacy

Compound: CC(=O)N[C@@H](Cc1c[nH]c2ccccc12)C(N)=O [NATA, N-acetyl-L-tryptophanamide]
- Ksv of acrylamide quenching of NATA fluorescence ([1]; positive control, fully solvent-exposed tryptophan, no Pgp): 15.43 ± 0.37 M⁻¹

Compound: CCc1c2c(nc3ccc(O)cc13)-c1cc3c(c(=O)n1C2)COC(=O)[C@]3(O)CC [SN-38]
- Probability density difference (∆PD) of tallest population relative to apo ([2]; 30 µM drug): −1.08 × 10^7
- C-side height of tallest Pgp population in presence of drug ([2]; 30 µM drug, apo 84 ± 5 Å): 78 ± 7 Å
- Fold higher cellular retention than TPT [7]: > 2 fold
- Ksv of acrylamide quenching of Pgp fluorescence ([1]; 30 µM drug, 3.2 mM AMPPNP): 0.81 ± 0.08 M⁻¹
- Ksv of acrylamide quenching of Pgp fluorescence ([1]; 30 µM drug, absence of AMPPNP, apoPgp 1.58 ± 0.03): 1.12 ± 0.02 M⁻¹
- Decrease in the Ksv value of apoPgp (acrylamide quenching) ([1]; 30 µM drug, no AMPPNP (Figure 4)): ~ 28%
- Decrease of protein fluorescence from the initial fluorescence ([6]; 60 µM drug, absence of AMPPNP): ~40.6%
- Decrease of protein fluorescence ([6]; 60 µM drug): 38.8%
- Stern–Volmer constant (Ksv) of drug-induced Pgp fluorescence quenching ([6]; absence of AMPPNP): 0.28 ± 0.09 µM⁻¹
- Change of affinity for Pgp in the presence of AMPPNP ([6]; presence vs absence of AMPPNP): diminished by over threefold
- Stern–Volmer constant (Ksv) of drug-induced Pgp fluorescence quenching ([6]; saturating (3.2 mM) AMPPNP): 0.076 ± 0.02 µM⁻¹
- Kd ([8]; absence of AMPPNP): 3.53 ± 1.14 µM
- Kd ([8]; saturating (3.2 mM) AMPPNP): 13.2 ± 4.23 µM

Compound: CC[C@@]1(O)C(=O)OCc2c1cc1n(c2=O)Cc2cc3c(CN(C)C)c(O)ccc3nc2-1 [TPT, Topotecan]
- Probability density difference (∆PD) of tallest population relative to apo ([2]; 60 µM drug): 4.11 × 10^7
- C-side height of tallest Pgp population in presence of drug ([2]; 60 µM drug, apo 74 ± 9 Å): 75 ± 7 Å
- Ksv of acrylamide quenching of Pgp fluorescence ([1]; 60 µM drug, 3.2 mM AMPPNP): 0.71 ± 0.04 M⁻¹
- Ksv of acrylamide quenching of Pgp fluorescence ([1]; 60 µM drug, absence of AMPPNP, apoPgp 1.58 ± 0.03): 0.78 ± 0.06 M⁻¹
- Decrease in the Ksv value of apoPgp (acrylamide quenching) ([1]; 60 µM drug, no AMPPNP (Figure 4)): ~50%
- Relative efflux rate, times higher than SN-38 [9]: approximately 4 times
- Average STDD amplification factor [5, 10]: around 45
- Highest STDD amplification factor [5, 10]: approximately 133
- Decrease of protein fluorescence from the initial fluorescence ([6]; 100 µM drug, absence of AMPPNP): approximately 71.6%
- Decrease of protein fluorescence ([6]; 100 µM drug): 61.0%
- Stern–Volmer constant (Ksv) of drug-induced Pgp fluorescence quenching ([6]; absence of AMPPNP): 0.41 ± 0.09 µM⁻¹
- Change of affinity for Pgp in the presence of AMPPNP ([6]; presence vs absence of AMPPNP): diminished by over threefold
- Stern–Volmer constant (Ksv) of drug-induced Pgp fluorescence quenching ([6]; saturating (3.2 mM) AMPPNP): 0.06 ± 0.01 µM⁻¹
- Kd ([8]; absence of AMPPNP): 2.47 ± 0.57 µM
- Kd ([8]; saturating (3.2 mM) AMPPNP): 16 ± 3.27 µM
